Assay [1] deals with rabbit aortal strip (TXA2 antagonism). In words: rabbit aortal strip model (test (a)). The assay is classed as cell-based. Particulars: procedure (a), agonist U46619. The protocol:
(a) the rabbit aortal strip model devised by Piper and Vane (Nature, 1969, 223, 29-35) using as agonist a freshly prepared sample of TXA2, generated by addition of arachidonic acid (25 μg) to citrated, platelet rich rabbit plasma (250 μl) and allowing the mixture to aggregate fully over 90 seconds before use; alternatively the TXA2 mimetic agent known as U46619 (described by R. L. Jones et alia, in "Chemistry, Biochemistry and Pharmacological Activity of Prostanoids" edited by S. M. Roberts and F. Scheinmann, at page 211, Pergamon Press, 1979) may be used as the agonist;

Assay [2] concerns the target T1, blood platelet aggregation (TXA2 antagonism) (Homo sapiens, UniProt P21731).
T1 construct: aggregating human, citrated platelet-rich plasma; endogenous in cells; host or cells: human platelets in citrated platelet-rich plasma
T1 sequence (P21731 1-343): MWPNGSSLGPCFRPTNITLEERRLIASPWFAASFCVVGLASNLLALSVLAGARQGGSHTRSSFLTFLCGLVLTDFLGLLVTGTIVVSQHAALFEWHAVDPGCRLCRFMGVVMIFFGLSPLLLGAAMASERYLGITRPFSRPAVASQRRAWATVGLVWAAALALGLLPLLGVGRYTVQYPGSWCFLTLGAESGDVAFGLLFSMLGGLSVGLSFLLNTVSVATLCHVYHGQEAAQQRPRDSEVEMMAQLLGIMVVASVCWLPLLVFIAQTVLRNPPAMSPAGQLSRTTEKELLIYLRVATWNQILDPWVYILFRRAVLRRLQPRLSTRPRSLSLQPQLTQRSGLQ
In words: blood platelet aggregation test (test (b)). Format: cell-based. The settings on record: procedure (b), human citrated platelet-rich plasma, U46619. From the text:
(b) a blood platelet aggregation test based on that described by Born (Nature, 1962, 194, 927-929) and involving:
(i) aggregating human, citrated platelet-rich plasma by addition of the TXA2 mimetic agent U46619 so that a dose-response curve is generated;
(ii) generating a dose-response curve for U46619 stimulated platelet aggregation in the presence of increasing amounts of test compound (generally in the range, 10^-5 M to 10^-10 M); and
(iii) calculating a Kb value indicating potency of TXA2 antagonism for the test compound, averaged over several concentrations, from the calculated 50% response value for U46619 aggregation in the presence and absence of test compound; and […]

In the case of `O=C(O)CC/C=C\C[C@@H]1CO[C@H](/C=C/c2ccccc2)O[C@@H]1c1ccccc1O` (relative stereo) [Example 1, 4(Z)-6-([2,4,5-cis]-4-o-hydroxyphenyl-2(E)-styryl-1,3-dioxan-5-yl)hexenoicacid], in assay [1], the pA2 (commonly a measure of antagonist potency on a negative log scale) is reported as 8.9. For the same compound, the Kb (usually the equilibrium dissociation constant of an antagonist, usually derived from a functional assay) in assay [2] was 12 nM.
